In general, IC50 refers to the midpoint of a concentration-inhibition curve. A higher IC50 goes with a need for much substance.

For data set [1], the target named is T1, IAPP (Fluos-IAPP, mostly monomers) (Homo sapiens, UniProt P10997).
T1 construct: made in house; host or cells: chemical synthesis
T1 sequence (P10997 34-70 limits assumed): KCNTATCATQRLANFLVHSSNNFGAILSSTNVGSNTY
Put plainly: Fluorescence spectroscopic titration of Fluos-IAPP. Format: binding. The conditions noted are these: for Kd: SD. As to the method: Fluorescence spectros copic titrations
Fluorescence spectrosco pic titration studies w ere performed with a JASC O FP-6500 fluorescence spectrophotometer using a previously described experimental protocol.[1, 5, 7] Briefly, excitation was at 492 nm and emission spectra were recorded between 500 and 600 nm. The app arent (app.) Kds of the interactions of IAPP with LL-37 and its segments LL-37(1- 14) and LL-37(15- 37) were quantified by titrating synthetic N α-amino-terminal fluorescein labeled IAPP (5 nM) with various amounts of each of the peptides . For all exp eri ments , freshly made stocks of peptides and their fluorescently lab eled an alogs in HF IP wer e used. Measurements w er e performed in 10 mM sodium phosphate buffer (pH 7.4) containing 1% HFIP within 2-5 min following solution preparation at room temperature. Of note, under these conditions freshly made Fluos-IAPP (5 nM) solutions consist mostly of monomers.[1] App. Kds were calculated using 1/1 binding models as previously described and ar e means (± SD) of three binding curves.[1, 3, 5, 7]
Cross-linking, NuPAGE, and Western Blot analysis
Cross-linking studies were preformed using a previously developed assay system.[5] Briefly, solutions of IAPP alone (30 µM) and its mixtures with LL-37 or scrLL- 37 at the indicated molar ratios (IAPP/LL-37 at 1/1 or 1/0.1) wer e p repared in aqueous sodium phosphate buffer, pH 7.4,

In data set [2] the target is T2, IAPP monomers and fibrils (Homo sapiens, UniProt P10997).
T2 construct: The 37‐residue IAPP is secreted from the β‐cells together with insulin; made in house; host or cells: chemical synthesis (Fmoc solid-phase synthesis on Rink resin)
T2 sequence (P10997 34-70 limits assumed): T1 sequence (P10997 34-70 limits assumed)
Kind of data set: Dot blot binding to IAPP monomers and fibrils. The note with it: IAPP monomers and fibrils (40 µg) on nitrocellulose, FAM-LL-37 200 nM, overnight 10 °C; representative of 4 assays. As to the method: Solutions were cross-linked using 25% aqueous glutaraldehyde (Sigma-Aldrich) an d 10% aqueous trichloro acetic acid (TCA ) was […] buffer, boiled for 5 min, and subjected to NuPAGE electrophoresis in 4- 12% Bis-Tris gels with MES running buffer (Invitrogen). The s ame volume of each solution (same IAPP amount) was loaded in all l anes. Peptid es were blotted using a X Cell II Blot Module blotting system (Invitrogen ). IAPP or […] using a polyclonal rabbit anti-IAPP antibody (Peninsula) or a monoclonal mouse anti-LL- 37 antibody (Santa Cruz Biotechnology), resp ectively in combination with suitable peroxidase (POD)-coupled s econdary antibodies (Pierce & Am […] Super Signal West Dura Extended Duration Substrate (Pierce). Of note, previous studies provided evidence for the […] of th e cross-linking assay; in addition, no new bands were obs […]-37 (1/1) mixtures (data not shown).[5] Dot blot analysis IAPP monomers or IAPP fibrils (fIAPP) containin g solutions (different am ounts up to 40 μg) were spotted onto a nitrocellulose membrane. […] In addition, to control for t he interference of fibril autofluorescence, a membrane containing spotted f IA P P which had been incubated in buffer alone w/o FAM-LL-37 was included in each assay; in general, fIAPP autofluorescence contribute d up to 25% of the total amount of fluorescence observed in fIAPP bound toFAM -LL- 37. […]

Data set [3] has as its system cytotoxic IAPP assemblies on RIN5fm cells.
The next data set deals with RIN5fm cells. The conditions noted are these: LL-37 alone, 7 days aged, 1 assay, n=3.
[4] abbreviates: Fluos-IAPP 5 nM, 10 mM sodium phosphate pH 7.4, 1% HFIP, room temperature, 1/1 binding model, mean (±SD) of three binding curves, read-out: app. Kd of interaction with Fluos-IAPP.

Where two headings read alike, the source gives them in different places. Ends that are not written are not given here.

On to KEFKRIVQRIKDFLRNLVPRTES [LL-37(15-37)], for which, in data set [1] (setting [4]), the Kd stood at 31.9 nM.
On the same count and under the same terms, in the case of LLGDFFRKSKEKIG [LL-37(1-14)] it was 2540 nM.
As to “FAM-LL-37: N-terminal fluorescein-labeled LL-37 with 6-aminohexanoic acid spacer, from Anaspec”, in data set [2], the “binding to IAPP fibrils and monomers (dot blot)” value is “bound both IAPP fibrils and monomers”.
For `CC[C@H](C)[C@H](NC(=O)[C@H](CCCCN)NC(=O)[C@H](CCC(=O)O)NC(=O)[C@H](CCCCN)NC(=O)[C@H](CO)NC(=O)[C@H](CCCCN)NC(=O)[C@H](CCCNC(=N)N)NC(=O)[C@H](Cc1ccccc1)NC(=O)[C@H](Cc1ccccc1)NC(=O)[C@H](CC(=O)O)NC(=O)CNC(=O)[C@H](CC(C)C)NC(=O)[C@@H](N)CC(C)C)C(=O)NCC(=O)N[C@@H](CCCCN)C(=O)N[C@@H](CCC(=O)O)C(=O)N[C@@H](Cc1ccccc1)C(=O)N[C@@H](CCCCN)C(=O)N[C@@H](CCCNC(=N)N)C(=O)N[C@H](C(=O)N[C@H](C(=O)N[C@@H](CCC(N)=O)C(=O)N[C@@H](CCCNC(=N)N)C(=O)N[C@H](C(=O)N[C@@H](CCCCN)C(=O)N[C@@H](CC(=O)O)C(=O)N[C@@H](Cc1ccccc1)C(=O)N[C@@H](CC(C)C)C(=O)N[C@@H](CCCNC(=N)N)C(=O)N[C@@H](CC(N)=O)C(=O)N[C@@H](CC(C)C)C(=O)N[C@H](C(=O)N1CCC[C@H]1C(=O)N[C@@H](CCCNC(=N)N)C(=O)N[C@H](C(=O)N[C@@H](CCC(=O)O)C(=O)N[C@@H](CO)C(=O)O)[C@@H](C)O)C(C)C)[C@@H](C)CC)C(C)C)[C@@H](C)CC` [LL-37], in data set [1] (Fluos-IAPP 5 nM with 100-fold molar excess of LL-37, pH 7.4), the “increase in fluorescence emission of Fluos-IAPP” value was determined as 322%. Also, in data set [1], the Kd stood at 88.1 nM. Further, the “effect on formation of cytotoxic IAPP assemblies (MTT reduction)” value in data set [3] was “effectively suppressed”. In addition, the midpoint of inhibition in data set [3] (rat, SD), the IC50, lay at 17 nM. For the same molecule, the “cytotoxicity of peptide alone (MTT reduction)” value with RIN5fm cells is listed as “not cytotoxic”.
